From patent US4778824A, “Method for suppressing a transplantation immunity and treating an allergic disease and an autoimmune disease” (Zaidan Hojin Biseibutsu Kagaku Kenkyu Kai, priority 1984, dated 1988)
Where a name gives a salt, the structure may show the parent alone.

Legend:
[1] = test system: acute experimental allergic encephalomyelitis; test: Effect on acute experimental allergic encephalomyelitis; format: in vivo, strain 13 guinea pigs; conditions: 2 weeks, with S.D.
Experimental: Male strain 13 guinea pigs were used. A group consisted of 5 guinea pigs. An aqueous suspension of 50% syngeneic spinal cord homogenate was emulsified in an equal volume of complete Freund's adjuvant containing M. tuberculosis at 20 mg/ml. The antigen emulsion (0.1 ml) was injected both hindfootpads of a guinea pig. Spergualin was administered i.p. for 2 weeks at 0.78 and 1.56 mg/kg.

IgE antibody production = test: Inhibition of IgE antibody production against egg albumin (passive cutaneous anaphylaxis titer); format: in vivo, BALB/c mice; conditions: 50 mg/kg/day i.p., ± S.D.
Experimental: BALB/c mice (7 wk old, female) were challenged by intraperitoneal administration of 10 μg of egg albumin together with 4 mg of aluminum hydroxide gel. Thereafter, the mice were intraperitoneally administered 50 mg/kg/day of the test compound in accordance with the schedules shown in Table 5. After the challenge, blood was drawn from the fundus of each mouse at 10-day intervals for serum collection. The antibody titer of IgE in the serum was determined by passive cutaneous anaphylaxis as follows. Fischer 344 rats (female, 10 wk old) were injected with 0.05 ml of a diluted serum into the dorsal skin. Four hours later, 1 mg of egg albumin and 0.5 ml of 1% Evans blue were injected into the tail vein, and the final serum dilution that produced a blue spot of a diameter of at least 5 mm 30 minutes after the intravenous injection was used as a measure of the antibody titer.

[2] = test system: graft-versus-host disease; test: Delay of graft-versus-host disease in irradiated CBA mice transplanted with C57BL/6 bone marrow cells and spleen cells; format: in vivo; conditions: Donor C57BL/6, 10 days
Experimental: Female CBA mice of 9 week-old and female C57BL/6 mice of 9 week-old were used. A group consisted of 10 mice. Bone marrow cells (10^7) and spleen cells (5×10^6) from CBA mice and C57BL/6 mice were injected i.v. into the whole body irradiation (850 rad) CBA mice. Spergualin was administered i.p. once a day for 10 days starting on one day after the injection of bone marrow cells and spleen cells. The data is indicated as the median survival time.

IgM antibody production = test: Inhibition of IgM antibody production against sheep red blood cells (plaque-forming cells); format: in vivo, CDF 1 mice; conditions: 3 days; for IgM plaque-forming cell count: ± S.D.
Source text: Additionally, in accordance with the method of Jerne et al. (Jerne et al., Cell-bound Antibodies, pp. 109-122, 1963), the inventors examined the inhibitory action of spergualin on humoral immunity which is primarily the domain of the B-lymphocytes. The test procedure consisted of counting the number of spleen cells that were extracted from mice sensitized by antigenic sheep red blood cells and which formed immunoglobulin M (IgM) plaques. […] As summarized in Experiments 4 and 5 spergualin inhibited the production of IgG and IgE.
CDF 1 mice (6-10 wk old, female) were immunized by intravenous injection of 1×10^8 sheep red blood cells. The mice were intraperitoneally administered varying doses (see Table 3 below) of the test compound for a period of 3 days starting from the day following the intravenous injection. Four days later, spleen cells were isolated from the mice and the number of IgM plaque-forming cells was counted by a known method (Yata et al.; Gan to Kagaku Ryoho (Cancer and Chemotherapy), vol. 2, pp. 903-908, 1975). The percentage inhibition of IgM antibody production was calculated by (1-B/A)×100 wherein A is the count for a control group (given physiological saline) and B, for the treated group.

IgG antibody production = test: Inhibition of IgG antibody production against sheep red blood cells (plaque-forming cells); format: in vivo, CDF 1 mice; conditions: 50 mg/kg/day i.p.; for IgG plaque forming cell count: ± S.D., significant (P < 0.0001); for inhibition at 50 mg/kg/day: Mus musculus, Erythrocyte, ip, IgG
Experimental: CDF 1 mice (6-10 wk old, female) were immunized by intravenous injection of 1×10^8 sheep red blood cells. The mice were intraperitoneally administered 50 mg/kg/day of the test compound for a period of 4 days starting on the day following the immunization or 3 days after that day. Seven days after the sensitization, spleen cells were isolated and the number of IgG plaque forming cells was counted by a known method (Yata et al., supra). As in Experiment 3, the percentage inhibition of IgG antibody production was determined.

Allokiller T-lymphocyte = test: Inhibition of allokiller T-lymphocyte genesis (51Cr release from P815 mastocytoma); format: in vivo, C 57 BL/b mice
Experimental: 3×10^7 P815 mastocytoma cells were administered intraperitoneally to C 57 BL/b mice (10 wk old). Twelve days later, spleen cels were isolated and used as effector cells (E). Target cells (T) which were ^51 Cr labelled P815 mastocytoma cells were challenged by the effector cells at varying E/T ratios and the allokiller activity was assayed in terms of the percentage release ^51 Cr. Spergualin was administered for nine consecutive days starting on the day following the transplantation or a single administration was made on the 9th day.

SMILES: N=C(N)NCCCCC(O)CC(=O)NC(O)C(=O)NCCCCNCCCN (stereo not drawn) [spergualin (trihydrochloride)]
- Mean survival time ([1]; 0.78 mg/kg i.p.): 15.2 ± 1.8 days
- Mean survival time ([1]; 1.56 mg/kg i.p., P < 0.01): 23.6 ± 9.2 days
- IgE antibody titer, 10 days (IgE antibody production; days 1-8 after challenge): 13±33 dilutions
- IgE antibody titer, 20 days (IgE antibody production; days 1-8 after challenge): 60±31 dilutions
- IgE antibody titer, 30 days (IgE antibody production; days 1-8 after challenge): 320±0 dilutions
- IgE antibody titer, 40 days (IgE antibody production; days 1-8 after challenge): 320±0 dilutions
- IgE antibody titer, 10 days (IgE antibody production; days 1-16 after challenge): 0±0 dilutions
- IgE antibody titer, 20 days (IgE antibody production; days 1-16 after challenge): 8±9 dilutions
- IgE antibody titer, 30 days (IgE antibody production; days 1-16 after challenge): 80±120 dilutions
- IgE antibody titer, 40 days (IgE antibody production; days 1-16 after challenge): 200±131 dilutions
- IgE antibody titer, 10 days (IgE antibody production; days 9-16 after challenge): 120±98 dilutions
- IgE antibody titer, 20 days (IgE antibody production; days 9-16 after challenge): 110±106 dilutions
- IgE antibody titer, 30 days (IgE antibody production; days 9-16 after challenge): 320±0 dilutions
- IgE antibody titer, 40 days (IgE antibody production; days 9-16 after challenge): 480±392 dilutions
- 80-day survivors, Survivors/Total ([2]; 3.13 mg/kg i.p. once a day): 2/10
- MST (median survival time) ([2]; 3.13 mg/kg i.p. once a day): 33.0 days
- 80-day survivors, Survivors/Total ([2]; 6.25 mg/kg i.p. once a day): 3/10
- MST (median survival time) ([2]; 6.25 mg/kg i.p. once a day, P < 0.05): 45.3 days
- 80-day survivors, Survivors/Total ([2]; 12.5 mg/kg i.p. once a day): 4/10
- MST (median survival time) ([2]; 12.5 mg/kg i.p. once a day, P < 0.01): 55.0 days
- 80-day survivors, Survivors/Total ([2]; 25.0 mg/kg i.p. once a day): 9/10
- MST (median survival time) ([2]; 25.0 mg/kg i.p. once a day, P < 0.01): > 80.0 days
- IgM plaque-forming cell count (IgM antibody production; 1 mg/kg/day i.p.): 1,304 ± 188 cells/10^6 spleen cells × 100
- IgM plaque-forming cell count (IgM antibody production; 5 mg/kg/day i.p., significant (P < 0.001)): 632 ± 87 cells/10^6 spleen cells × 100
- IgM plaque-forming cell count (IgM antibody production; 10 mg/kg/day i.p., significant (P < 0.001)): 392 ± 87 cells/10^6 spleen cells × 100
- IgM plaque-forming cell count (IgM antibody production; 25 mg/kg/day i.p., significant (P < 0.001)): 149 ± 53 cells/10^6 spleen cells × 100
- IgM plaque-forming cell count (IgM antibody production; 50 mg/kg/day i.p., significant (P < 0.001)): 64 ± 24 cells/10^6 spleen cells × 100
- inhibition at 1 mg/kg/day (IgM antibody production; Mus musculus, Erythrocyte, ip, 72 h, IgM, 1 mg/kg/day i.p.): 10.3%
- inhibition at 5 mg/kg/day (IgM antibody production; Mus musculus, Erythrocyte, ip, 72 h, IgM, 5 mg/kg/day i.p.): 56.5%
- inhibition at 10 mg/kg/day (IgM antibody production; Mus musculus, Erythrocyte, ip, 72 h, IgM, 10 mg/kg/day i.p.): 73%
- inhibition at 25 mg/kg/day (IgM antibody production; Mus musculus, Erythrocyte, ip, 72 h, IgM, 25 mg/kg/day i.p.): 89.7%
- inhibition at 50 mg/kg/day (IgM antibody production; Mus musculus, Erythrocyte, ip, 72 h, IgM, 50 mg/kg/day i.p.): 95.5%
- IgG plaque forming cell count (IgG antibody production; days 1-4 after sensitization): 17 ± 16 cells/10^6 spleen cells
- IgG plaque forming cell count (IgG antibody production; days 3-6 after sensitization): 19 ± 15 cells/10^6 spleen cells
- inhibition at 50 mg/kg/day (IgG antibody production; days 1-4 after sensitization): 96.7%
- inhibition at 50 mg/kg/day (IgG antibody production; days 3-6 after sensitization): 96.3%
- Percent release of ^51 Cr (Allokiller T-lymphocyte; 5 mg/kg/day, days 1-9 after transplantation, E/T ratio 5): 6%
- Percent release of ^51 Cr (Allokiller T-lymphocyte; 5 mg/kg/day, days 1-9 after transplantation, E/T ratio 10): 8%
- Percent release of ^51 Cr (Allokiller T-lymphocyte; 5 mg/kg/day, days 1-9 after transplantation, E/T ratio 20): 17%
- Percent release of ^51 Cr (Allokiller T-lymphocyte; 50 mg/kg, single administration day 9, E/T ratio 5): 21%
- Percent release of ^51 Cr (Allokiller T-lymphocyte; 50 mg/kg, single administration day 9, E/T ratio 10): 30%
- Percent release of ^51 Cr (Allokiller T-lymphocyte; 50 mg/kg, single administration day 9, E/T ratio 20): 51%
- Percent release of ^51 Cr (Allokiller T-lymphocyte; 50 mg/kg/day, days 1-9 after transplantation, E/T ratio 5): 0%
- Percent release of ^51 Cr (Allokiller T-lymphocyte; 50 mg/kg/day, days 1-9 after transplantation, E/T ratio 10): 0%
- Percent release of ^51 Cr (Allokiller T-lymphocyte; 50 mg/kg/day, days 1-9 after transplantation, E/T ratio 20): 1%
